Reference: US20230263822A1, “MODULATION OF FACTOR 11 EXPRESSION” (Ionis Pharmaceuticals, Inc., priority 2008, published 2023)
Strand notation (5' to 3'): a small letter for the sugar, then the base; units joined by * are phosphorothioate-linked, units joined directly phosphodiester-linked; [ ] holds rarer units or linkages, { } end groups; capitals alone tell only the bases. e = 2'-O-(2-methoxyethyl) (MOE); [5mC] = 5-methylcytosine; d = 2'-deoxy (DNA)

What was measured:
[1] = Hematology assays in cynomolgus monkeys (Example 46); format: in vivo
Description: (§1) Groups, each consisting of two male and two female monkeys, were injected subcutaneously with 25 mg/kg of ISIS 416850, ISIS 449709, ISIS 445522, ISIS 449710, ISIS 449707, ISIS 449711, ISIS 449708, 416858, and ISIS 445531. Antisense oligonucleotide was administered to the monkeys at 25 mg/kg three times per week for week 1 and 25 mg/kg twice per week for weeks 2 to 8. A control group, consisting of two male and two female monkeys was injected subcutaneously with PBS according to the same dosing regimen. Body weights were taken 14 days and 7 days before the start of treatment and were then measured weekly throughout the treatment period. Blood samples were collected 14 days and 5 days before the start of treatment and subsequently several times during the dosing regimen for PT and aPTT measurements, and measurement of various hematologic factors. On day 55, the monkeys were euthanized by exsanguination while under deep anesthesia, and organs harvested for further analysis.

[2] = system: IL-1β, IL-6, IFN-γ, TNF-α, IL-8, MIP-1α, MCP-1, MIP-1β, RANTES; experiment: Cytokine and chemokine assays in cynomolgus monkeys (Example 46); format: in vivo
Description: as §1
Blood samples obtained from all monkey groups were sent to Pierce Biotechnology (Woburn, Mass.) for measurements of chemokine and cytokine levels. Levels of IL-1β, IL-6, IFN-γ, and TNF-α were measured using the respective primate antibodies and levels of IL-8, MIP-1α, MCP-1, MIP-1β and RANTES were measured using the respective cross-reacting human antibodies. Measurements were taken 14 days before the start of treatment and on day 55, when the monkeys were euthanized.

[3] = day-14 (before start of treatment)

Substance “ISIS 449708: 3-8-3, 4-8-4, 2-10-2, 3-10-3 or 4-10-4 MOE microwalk gapmer (Table 46) (antisense eA*e[5mC]*eA*dG*dT*dT*dT*d[5mC]*dT*dG*dG*e[5mC]*eA*eG)” has an HCT ([1]; Day 17) of 44%, an MCH ([1]; Day 17) of 22.9 pg and an MCHC ([1]; Day 17) of 30.7 g/dL. For the same substance, the MCV ([1]; Day 17) was 75 fL, the RBC count ([1]; Day 17) was 5.9e+06 µL⁻¹ and the WBC count ([1]; Day 17) was 11000 µL⁻¹. The hemoglobin content ([1]; Day 17) was 13.5 g/dL, the monocytes ([1]; Day 17) was 5.4% and the neutrophils ([1]; Day 17) was 61%. For the same substance, the platelet count ([1]; Day 17) was 444 ×100/μL, the HCT ([1]; Day 31) was 43% and the MCH ([1]; Day 31) was 22.7 pg. It also gave an MCHC ([1]; Day 31) of 29.9 g/dL, an MCV ([1]; Day 31) of 75 fL and an RBC count ([1]; Day 31) of 5.8e+06 µL⁻¹. The WBC count ([1]; Day 31) was 11000 µL⁻¹, the hemoglobin content ([1]; Day 31) was 13.0 g/dL and the monocytes ([1]; Day 31) was 5.8%. For the same substance, the neutrophils ([1]; Day 31) was 57%, the platelet count ([1]; Day 31) was 378 ×100/μL and the HCT ([1]; Day 45) was 44%. The MCH ([1]; Day 45) was 22.2 pg, the MCHC ([1]; Day 45) was 30.6 g/dL and the MCV ([1]; Day 45) was 74 fL. It also gave an RBC count ([1]; Day 45) of 6e+06 µL⁻¹, a WBC count ([1]; Day 45) of 10000 µL⁻¹ and a hemoglobin content ([1]; Day 45) of 13.3 g/dL. For the same substance, the monocytes ([1]; Day 45) was 7.0%, the neutrophils ([1]; Day 45) was 61% and the platelet count ([1]; Day 45) was 381 ×100/μL. It also gave an HCT ([1]; Day 55) of 42%, an MCH ([1]; Day 55) of 22.5 pg and an MCHC ([1]; Day 55) of 31.8 g/dL. It also gave an MCV ([1]; Day 55) of 74 fL, an RBC count ([1]; Day 55) of 5.8e+06 µL⁻¹ and a WBC count ([1]; Day 55) of 10000 µL⁻¹. For the same substance, the hemoglobin content ([1]; Day 55) was 13.0 g/dL, the monocytes ([1]; Day 55) was 6.2% and the neutrophils ([1]; Day 55) was 75%. For the same substance, the platelet count ([1]; Day 55) was 348 ×100/μL, the HCT ([1]; Day-5) was 44% and the MCH ([1]; Day-5) was 22.7 pg. It also gave an MCHC ([1]; Day-5) of 30.2 g/dL, an MCV ([1]; Day-5) of 75 fL and an RBC count ([1]; Day-5) of 5.9e+06 µL⁻¹. It also gave a WBC count ([1]; Day-5) of 10000 µL⁻¹, a hemoglobin content ([1]; Day-5) of 13.2 g/dL and a monocytes ([1]; Day-5) of 2.6%. For the same substance, the neutrophils ([1]; Day-5) was 84%, the platelet count ([1]; Day-5) was 517 ×100/μL and the HCT ([1]; Day-14) was 41%. It also gave an MCH ([1]; Day-14) of 22.9 pg, an MCHC ([1]; Day-14) of 31.4 g/dL and an MCV ([1]; Day-14) of 73 fL. It also gave an RBC count ([1]; Day-14) of 5.7e+06 µL⁻¹, a WBC count ([1]; Day-14) of 14000 µL⁻¹ and a hemoglobin content ([1]; Day-14) of 13.0 g/dL. The monocytes ([1]; Day-14) was 1.7%, the neutrophils ([1]; Day-14) was 73% and the platelet count ([1]; Day-14) was 387 ×100/μL. The IFN-γ level ([2]; day 55) was 18 pg/mL, the IL-1ß level ([2]; day 55) was 131 pg/mL and the IL-6 level ([2]; day 55) was 0 pg/mL. The IL-8 level ([2]; day 55) was 85 pg/mL, the MCP-1 level ([2]; day 55) was 409 pg/mL and the MIP-1ß level ([2]; day 55) was 128 pg/mL. The MIP-1α level ([2]; day 55) was 23 pg/mL, the RANTES level ([2]; day 55) was 4561 pg/mL and the TNF-α level ([2]; day 55) was 17 pg/mL. The IFN-γ level [2, 3] was 27 pg/mL, the IL-1ß level [2, 3] was 35 pg/mL and the IL-6 level [2, 3] was 1 pg/mL. For the same substance, the IL-8 level [2, 3] was 184 pg/mL, the MCP-1 level [2, 3] was 361 pg/mL and the MIP-1ß level [2, 3] was 19 pg/mL. The MIP-1α level [2, 3] was 11 pg/mL, the RANTES level [2, 3] was 11666 pg/mL and the TNF-α level [2, 3] was 12 pg/mL.
